Experiment [1] has as its system cMYC. In words: Inhibition of cMYC expression (mRNA, real-time PCR) in MV4-11 cells. The experiment is classed as cell-based. Particulars: Human AML MV4-11 cells, 3 h; for IC50: read-out: c-myc activity. As for the experimental part:
MV4-11 cells (CRL-9591) were plated at a density of 2.5×10^4 cells per well in 96 well U-bottom plates and treated with increasing concentrations of test compound or DMSO (0.1%) in IMDM media containing 10% FBS and penicillin/streptomycin, and incubated for 3 h at 37° C. Triplicate wells were used for each concentration. Cells were pelleted by centrifugation and harvested using the mRNA Catcher PLUS kit according to manufacturer's instructions. The eluted mRNA isolated was then used in a one-step quantitative real-time PCR reaction, using components of the RNA UltraSense™ One-Step Kit (Life Technologies) together with Applied Biosystems TaqMan® primer-probes for cMYC and Cyclophilin. Real-time PCR plates were run on a ViiA™7 real time PCR machine (Applied Biosystems), data was analyzed, normalizing the Ct values for cMYC to an internal control, prior to determining the fold expression of each sample, relative to the control.

The test system of experiment [2] is hIL-6. Kind of experiment: Inhibition of hIL-6 mRNA transcription in LPS-stimulated U937 cells. As to conditions: Homo sapiens, U-937, PMA-differentiated U937 cells, 1 h pretreatment, LPS 3 h, read-out: IL-6 activity. The experiment is classed as cell-based. As for the experimental part: Human leukemic monocyte lymphoma U937 cells (CRL-1593.2) were plated at a density of 3.2×10^4 cells per well in a 96-well plate in 100 μL RPMI-1640 containing 10% FBS and penicillin/streptomycin, and differentiated into macrophages for 3 days in 60 ng/mL PMA ([…]) at 37° C. in 5% CO2 prior to the addition of compound. The cells were pretreated for 1 h with increasing concentrations of test compound in 0.1% DMSO prior to stimulation with 1 ug/mL lipopolysaccharide from Escherichia coli. Triplicate wells were used for each concentration. The cells were incubated at 37° C., 5% CO2 for 3 h before the cells were harvested. At time of harvest, media was removed and cells were rinsed in 200 μL PBS. Cells were harvested using the mRNA Catcher PLUS kit according to manufacturer's instructions. The eluted mRNA was then used in a one-step quantitative real-time PCR reaction using components of the RNA UltraSense™ One-Step Kit (Life Technologies) together with Applied Biosystems TaqMan® primer-probes for hIL-6 and Cyclophilin. Real-time PCR plates were run on a ViiA™7 real time PCR machine (Applied Biosystems), data was analyzed, normalizing the Ct values for hIL-6 to an internal control, prior to determining the fold expression of each sample, relative to the control.

For experiment [3], the target named is T1, Brd4 bromodomain 1 (BRD4(1)) (Homo sapiens, UniProt O60885).
T1 construct: N-terminally His-tagged bromodomains (BRD4(1) at 20 nM and BRD4(2) at 100 nM); made in house; host or cells: E. coli BL21(DE3)
In words: AlphaScreen inhibition of tetra-acetylated histone H4 binding to BRD4(1). As to conditions: BRD4(1) at 20 nM, tetra-acetylated histone H4 peptide, 30 min incubation; read-out: Alpha Screen BRD4(1). As for the experimental part: (§1) Proteins were cloned and overexpressed with a N-terminal 6×His tag, then purified by nickel affinity followed by size exclusion chromatography. Briefly, E. coli BL21(DE3) cells were transformed with a recombinant expression vector encoding N-terminally Nickel affinity tagged bromodomains from Brd2, Brd3, Brd4. Cell cultures were incubated at 37° C. with shaking to the appropriate density and induced overnight with IPTG. The supernatant of lysed cells was loaded onto Ni-IDA column for purification. Eluted protein was pooled, concentrated and further purified by size exclusion chromatography. Fractions representing monomeric protein were pooled, concentrated, aliquoted, and frozen at −80° C. for use in subsequent experiments.
(§2) Binding of tetra-acetylated histone H4 peptide (Millipore) and BET bromodomains was confirmed by Amplified Luminescent Proximity Homogenous Assay (AlphaScreen). N-terminally His-tagged bromodomains (BRD4(1) at 20 nM and BRD4(2) at 100 nM) and biotinylated tetra-acetylated histone H4 (10-25 nM) were incubated in the presence of nickel chelate acceptor beads and streptavidin donor beads (PerkinAlmer, 6760000K) added to a final concentration of 2 μg/ml under green light in a white 96 well microtiter plate (Greiner). For inhibition assays, serially diluted compounds were added to the reaction mixtures in a 0.1% final concentrations of DMSO. Final buffer concentrations were 50 mM HEPES, 100 mM NaCl and 0.1% BSA buffer, pH 7.4 and optimized to 30 min incubation time. Assay plates were read at 570 nm on a Synergy H4 Plate Reader (Biotek). IC50 values were determined from a dose response curve.
A general note: In Alpha technology, singlet oxygen from a donor bead excites a nearby acceptor bead.

For experiment [4], the system named is MV4-11 cells. Kind of experiment: Inhibition of cell proliferation in MV4-11 cells (Cell Titer Aqueous One). The experiment is classed as cell-based. As to conditions: Human AML MV-4-11 cells, 72 h; for IC50: MV4-11. As for the experimental part: MV4-11 cells (CRL-9591) were plated at a density of 5×10^4 cells per well in 96 well flat bottom plates and treated with increasing concentrations of test compound or DMSO (0.1%) in IMDM media containing 10% FBS and penicillin/streptomycin. Triplicate wells were used for each concentration and a well containing only media was used as a control. Plates were incubated at 37° C., 5% CO2 for 72 h before adding 20 μL of the Cell Titer Aqueous One Solution (Promega) to each well and incubated at 37° C., 5% CO2 for an additional 3-4 h. The absorbance was read at 490 nm in a spectrophotometer and the percentage of cell titer relative to DMSO-treated cells was calculated after correcting for background by subtracting the blank well's signal. IC50 values were calculated using the GraphPad Prism software.

Experiment [5] has as its target T2, Brd 4 bromodomain 2 (BRD4(2)) (Homo sapiens, UniProt O60885).
T2 construct: N-terminally His-tagged bromodomains (BRD4(1) at 20 nM and BRD4(2) at 100 nM); made in house; host or cells: E. coli BL21(DE3)
Kind of experiment: AlphaScreen inhibition of tetra-acetylated histone H4 binding to BRD4(2). Particulars: BRD4(2) at 100 nM, tetra-acetylated histone H4 peptide, 30 min incubation; for IC50: read-out: Alpha Screen BRD4(2). As for the experimental part: as §1, §2

Structures are written as SMILES. Where a name gives a salt, the structure may show the parent alone.

As to `CC(=O)c1cccc(-c2[nH]c(-c3ccccc3)nc2-c2n[nH]c(=O)n2C2CC2)c1` [Example 1, 3-(5-(3-acetylphenyl)-2-phenyl-1H-imidazol-4-yl)-4-cyclopropyl-1H-1,2,4-triazol-5(4H)-one hydrochloride], the IC50 in experiment [1] was 3 to 30 µM; in experiment [2] it was 3 to 30 µM; in experiment [3], not above 0.3 µM; in experiment [4] it was 3 to 30 µM; in experiment [5], 3 to 30 µM.

With `CCC(=O)c1cccc(-c2[nH]c(-c3ccccc3)nc2-c2n[nH]c(=O)n2C2CC2)c1` [Example 6, 4-cyclopropyl-3-(2-phenyl-5-(3-propionylphenyl)-1H-imidazol-4-yl)-1H-1,2,4-triazol-5(4H)-one hydrochloride], the IC50 in experiment [1] lay in the range of 3 to 30 µM; in experiment [3], 0.3 to 3 µM; in experiment [4], 3 to 30 µM; in experiment [5], 3 to 30 µM.

In the case of `Cn1ncc2ccc(-c3[nH]c(-c4ccccc4)nc3-c3n[nH]c(=O)n3C3CC3)cc21` [Example 7, 4-cyclopropyl-3-(5-(1-methyl-1H-indazol-6-yl)-2-phenyl-1H-imidazol-4-yl)-1H-1,2,4-triazol-5(4H)-one hydrochloride], the IC50 in experiment [1] is 3 to 30 µM; in experiment [2], 3 to 30 µM; in experiment [3] it was not above 0.3 µM; in experiment [4], 3 to 30 µM. Also, in experiment [5], the “Alpha Screen BRD4(2)” value is on record as “Not Active”.

`CC(=O)c1cc(-c2[nH]c(-c3ccccc3)nc2-c2n[nH]c(=O)n2C2CC2)ccc1F` [Example 8, 3-(5-(3-acetyl-4-fluorophenyl)-2-phenyl-1H-imidazol-4-yl)-4-cyclopropyl-1H-1,2,4-triazol-5(4H)-one hydrochloride]: the c-myc activity result in experiment [1] is “Not Active”. The IC50 was 3 to 30 µM in experiment [2] and not above 0.3 µM in experiment [3]. In experiment [4], the “Cell Proliferation activity” value is given as “Not Active”. Moreover, the “Alpha Screen BRD4(2)” value in experiment [5] is given as “Not Active”.

Turning to `CC(=O)c1cc(F)cc(-c2[nH]c(-c3ccccc3)nc2-c2n[nH]c(=O)n2C2CC2)c1` [Example 9, 3-(5-(3-acetyl-5-fluorophenyl)-2-phenyl-1H-imidazol-4-yl)-4-cyclopropyl-1H-1,2,4-triazol-5(4H)-one hydrochloride], the IC50 in experiment [1] is 3 to 30 µM; in experiment [2], 3 to 30 µM; in experiment [3], 0.3 to 3 µM; in experiment [4] it was 3 to 30 µM. Moreover, in experiment [5], the “Alpha Screen BRD4(2)” value is reported as “Not Active”.

As to `Cn1ncc2cc(-c3[nH]c(-c4ccccc4)nc3-c3n[nH]c(=O)n3C3CC3)ccc21` [Example 10, 4-cyclopropyl-3-(5-(1-methyl-1H-indazol-5-yl)-2-phenyl-1H-imidazol-4-yl)-1H-1,2,4-triazol-5(4H)-one hydrochloride], the c-myc activity result in experiment [1] is on record as “Not Active”. The IC50 in experiment [3] lay within 3 to 30 µM; in experiment [5] it was 0.3 to 3 µM. In addition, in experiment [4], the “Cell Proliferation activity” value is “Not Active”.

As for `Cc1n[nH]c2ccc(-c3[nH]c(-c4ccccc4)nc3-c3n[nH]c(=O)n3C3CC3)cc12` [Example 13, 4-cyclopropyl-3-(5-(3-methyl-1H-indazol-5-yl)-2-phenyl-1H-imidazol-4-yl)-1H-1,2,4-triazol-5(4H)-one hydrochloride], the IC50 is 3 to 30 µM in experiment [1], 0.3 to 3 µM in experiment [3], 3 to 30 µM in experiment [4] and 0.3 to 3 µM in experiment [5].

In the case of `Cn1nnc2ccc(-c3[nH]c(-c4ccccc4)nc3-c3n[nH]c(=O)n3C3CC3)cc21` [Example 14, 4-cyclopropyl-3-(5-(1-methyl-1H-benzo[d][1,2,3]triazol-6-yl)-2-phenyl-1H-imidazol-4-yl)-1H-1,2,4-triazol-5(4H)-one hydrochloride], the IC50 in experiment [1] was 3 to 30 µM; in experiment [2], 3 to 30 µM; in experiment [3] it was not above 0.3 µM; in experiment [4], 3 to 30 µM; in experiment [5], not above 0.3 µM.

The values above are taken from patent US10292968B2, “Substituted heterocycles as bromodomain inhibitors” (Zenith Epigenetics Ltd., priority 2014, dated 2019).
